Results reported in a melting point compilation (Tetko et al.; mined from patent text by program, amines drawn as free bases though some values may be those of a salt).

| melting point [°C] | SMILES |
| --- | --- |
| 239 | O=[N+]([O-])c1ccc(CSc2ncnc3nc[nH]c23)cc1 |
| 117 to 118 | O=C1N=CN(CC2CCCCC2)C12CCN(Cc1ccccc1)CC2 |
| 206 to 209 | Oc1ccc(N2CCN(Cc3nc4ccccc4[nH]3)CC2)cc1 |
| 226 | CN(c1cccc2cc(C3=NCC4(CCN(CC(N)=O)CC4)S3)[nH]c12)S(=O)(=O)c1cccs1 |
| 123 to 124 | CCCC[C@H](NC(=O)[C@H](Cc1ccccc1)NC(=O)OCc1ccccc1)C(=O)CSCc1ccco1 |
| 236 to 237 | NS(=O)(=O)c1ccc(NC(=O)Nc2ccc(Oc3ccccc3)cc2)cc1 |
| 219 to 220 | CC(C(N)=O)c1ccc(-c2cn3ccccc3n2)cc1 (configuration not stated) |
| 188 to 189 | CC(C)(C)OC(=O)N1CCN(c2cccc3c2c(Br)cn3S(=O)(=O)c2ccccc2)CC1 |
| 177 to 180 | C#CCN1CCN(C2Cc3ccc(OC)cc3Sc3ccc(Cl)cc32)CC1 (configuration not stated) |
| 181 to 182 | Cc1ccc(/C=C/C(=O)O)n1Cc1ccc(Cl)cc1Cl |
| 132 to 133 | COC(=O)c1cc(OC)c(NC(=O)OCc2ccccc2)c(OC)c1 |
| 169 to 170 | O=C(O)CCc1cn(Cc2ccc(OCc3ccc(-c4ccccc4)cn3)cc2)cc1-c1ccccc1 |
| 166 to 168 | CC(=O)NC[C@H]1CN(c2ccc(N3CCC(F)(CI)CC3)c(F)c2)C(=O)O1 |
| 72 to 73 | OC1(C(Cl)Cl)O[C@H](COCc2ccccc2)[C@@H](OCc2ccccc2)[C@H](OCc2ccccc2)[C@H]1OCc1ccccc1 (some centres not stated) |
| 274 to 279 | Cc1ccccc1Cc1ccc(-c2cnn3c(O)ncnc23)cc1 |
| 224 to 225 | Cc1oc(-c2ccccc2)nc1CCC(=O)c1ccc(C=C2SC(=O)NC2=O)cc1 |
| 112 | Cc1ccnc(N2CCN(C(=O)CCCC3Cn4c(-c5cc(C)c(O)c(C)c5)c(C)c5cccc(c54)O3)CC2)c1 (configuration not stated) |
| 228 | COc1ccc(-c2[nH]nc3c2C(=O)c2c(NC(=O)Cc4ccc(NC(=O)CN)cc4)cccc2-3)cc1 |
| 120 to 122 | CC(C)(C)OC(=O)c1ccc(C(=O)N(Cc2ccccc2)S(=O)(=O)c2ccc(Br)cc2)cc1 |
| 103 to 107 | CN(C)c1nc2cc(C(F)(F)F)ccc2n1Cc1ccc(Cl)cc1 |

| melting point [°C] | SMILES |
| --- | --- |
| 113 to 115 | CC1=C(C(=O)OCCN(C)Cc2ccccc2)C(c2cccc([N+](=O)[O-])c2)C(P(=O)(OC(C)C)OC(C)C)=C(C)N1 (configuration not stated) |
| 105 to 108 | O=C(O)c1ccc(S(=O)(=O)Oc2ccc(-c3ccc(-c4c(C(=O)c5ccccc5)oc5ccccc45)cc3)cc2C2CCCC2)cc1O |
| 87 to 88 | O=C1c2ccccc2C(=O)N1CCCCCSc1ccccc1 |
| 69 to 71 | CCCCC(Cc1ccc(OCCNC(=O)c2ccc(O)nc2)cc1)C(=O)O (configuration not stated) |
| 205 to 206 | COc1ccc(-c2cc(-c3ccccc3)[nH]c2C(=O)Nc2cccc(CC(=O)NO)c2)cc1 |
| 92 to 93 | CC(=O)c1cn(Cc2ccccc2)c(=O)n(Cc2ccccc2)c1=O |
| 86 to 98 | CN1Cc2cccnc2C(N2CCN(C(=O)CC3CCN(C(=O)OC(C)(C)C)CC3)CC2)c2ccc(Cl)cc21 (configuration not stated) |
| 122 | NC(=O)c1ccc(F)c2c1CC(N(CCCCc1c[nH]c3ccc(F)cc13)C1CCC1)CO2 (configuration not stated) |
| 229 to 231 | O=C(O)C1=Cc2c(ccc(Cl)c2-c2ccccc2)OC1C(F)(F)F (configuration not stated) |
| 62 to 66 | Cc1ccc2nc(OCC(=O)NCCCN(C)Cc3ccc(Cl)c(Cl)c3)oc2c1 |
| 130 to 132 | Fc1ccc(-c2c[nH]cn2)cc1 |
| 219 | COP(=O)(OC)c1cc(O)c2c(=O)cc(-c3ccccc3)oc2c1 |
| 158 to 160 | O=C(O)COCc1cc2cc(C(F)(F)F)ccc2n1S(=O)(=O)c1ccccc1 |
| 173 to 176 | CCOCc1nnc(C)n1-c1ccc(Cl)cc1C(=O)O |
| 86 to 88 | CC(C)(O)C(C(=O)O)c1ccc(F)cc1 (configuration not stated) |
| 197 to 199 | CCOC(=O)c1cccc(Nc2nccc(-c3cccnc3)n2)c1 |
| 132 | CC(C)(Oc1ccc2c(-c3ccc(Cl)cc3)noc2c1)C(=O)O |
| 94 to 97 | CS(=O)(=O)Nc1ccc(CCN2CCN(C(=O)c3ccc4[nH]ccc4c3)CC2)cc1 |
| 149 to 150 | O=C(O)Cc1ccc2c3ccccc3n(Cc3ccccc3)c2c1 |
| 207 to 208 | COc1cc(C#CCO)cc2c(O)c(C(=O)NCc3ccc(Cl)cc3)cnc12 |

| melting point [°C] | SMILES |
| --- | --- |
| 82 to 84 | CCOC(=O)C1CCc2cc3ccccc3n2C1=O (configuration not stated) |
| 110 to 112 | CCCCOCCOc1ccc(-c2ccc3c(c2)C=C(C(=O)Nc2ccc([C@@H](O)c4ccccn4)cc2)CCN3C=O)cc1 |
| 201 to 203 | O=C(c1ccccc1)C(O)n1cncc1Cl (configuration not stated) |
| 145 | CS(=O)(=O)N1CC(=O)NC(=O)N1Cc1ccc(Cl)cc1 |
| 133 to 134 | COCCN(C)c1nnc(-c2ccc(-c3ccccc3)nc2)n1-c1cccc2nonc12 |
| 108 to 109 | OC1(c2cccn2Cc2ccccc2F)CCN(CCc2ccc(Cl)cc2)CC1 |
| 115 to 116 | CCCCc1nc2c(C)cccc2n1Cc1ccc([N+](=O)[O-])cc1 |
| 102 | CC(C)c1cccc(C(C)C)c1NC(=O)CC(=O)N(Cc1ccccc1)C(C)C |
| 257 | CNC(=O)C1CCN(Cc2cnc3cc(NC(=O)c4ccc(-c5ccc(F)cc5)cc4)c(C)cc3c2)CC1 |
| 153 to 155 | CNC(C)c1ccc(C2CCC(N(C)C(=O)c3ccc(Cl)cc3)CC2)cc1 (configuration not stated) |
| 109 to 112 | O=C(CC(=O)c1cc(CN2CCOCC2)sc1Cl)NCc1ccc(Cl)cc1 |
| 140 | CCOC(=O)C1=C(C)NC(N=CN(C)C)=C(C(=O)OCC)C1c1ccccc1Cl (configuration not stated) |
| 181 to 182 | COc1ccc(S(=O)(=O)n2ccc3cccc(-c4ccc(F)cc4)c32)cc1 |
| 190 to 191 | CCCOc1ccccc1-c1ncc(C(=O)NC)c(=O)[nH]1 |
| 109 to 110 | O=c1c2ccc(Cl)cc2cc2n1CCCS2 |
| 210 to 211 | COc1ccc(Nc2ccc(Nc3ncnc4cc(-c5ccccc5)sc34)cc2)cc1 |
| 205 | CCCCc1cc(OCCc2ccc(C(=O)O)cc2)c2ccccc2n1 |
| 165 to 166 | O=C(c1cccs1)c1cccn1N1C(=O)c2ccccc2C1=O |

The next lines start with the compound.

| SMILES | melting point [°C] |
| --- | --- |
| Ic1cccc(OCCCCCCOc2c(I)cc(I)cc2I)c1 | 65 to 66 |
| O=c1c2cc(O)ccc2[nH]c2c([N+](=O)[O-])cc([N+](=O)[O-])c(Cl)c12 | 278 to 281 |
| CSc1cc2c([nH]1)CC(C)(C)CC2=O | 195 to 196 |
| COC(=O)CCCC(N)=O | 80 |
| FC(F)(F)c1nc(N=C(Cl)c2cccc(Cl)c2)sc1Cl | 89 to 90 |
| CCOC(=O)c1ccc(N)cc1O | 113 to 115 |
| CN1C(=O)Nc2cc(Cl)c(Cl)cc2C1(O)C(=O)NC(N)=S (configuration not stated) | 225 to 228 |
| N#CC(=NOC(=O)OCC(Cl)(Cl)Cl)c1ccccc1 | 82 to 84 |
| C=CCNc1nc(NC(=O)NCCCC)c2scc(C)c2n1 | 141 |
| CN(C)S(=O)(=O)c1ccc2c(c1)C=C(C(=O)O)C(C(F)(F)F)O2 (configuration not stated) | 201 to 202 |
| CCC(CC)Nc1nc(NC(C)=O)nc(C(C)(C)F)n1 | 109 to 111 |
| COCNC(=O)CNC(=O)OCc1ccccc1 | 77 to 78 |
| CCCCCCCCCCCCCCOc1ccc(C(=O)O)cc1C(C)(C)C | 121 to 123 |
| N#Cc1cnn(C2CCCCC2)c1N | 99 to 103 |
| Cc1nc(-c2ccc(=O)[nH]c2C)cs1 | 188 to 190 |
| BrCCc1c[nH]c2ccccc12 | 57 to 60 |
| CC1=NC(=NOC(=O)NC(C)C)SC1(C)C | 114 to 116 |
| CCOCc1nc2c(N)nc3cc(Br)ccc3c2n1CC1CCN(C(=O)N2CCOCC2)CC1 | 198 to 199 |
| CCCCCS(=O)(=O)NC(=O)C(C)Cc1ccc(OCCOC)cc1Oc1ncc(C(F)(F)F)cc1Cl (configuration not stated) | 136 to 138 |
| CC(C)N1Cc2c(F)cccc2N(CCN2CC=C(c3c[nH]c4cc(F)ccc34)CC2)S1(=O)=O | 107 to 109 |
| Cn1ccc(S(=O)(=O)NC(C)(C)C)c1 | 134 to 135 |
| COC(=O)c1cc2cc(CBr)ccc2s1 | 108 to 110 |

| SMILES | melting point [°C] |
| --- | --- |
| Cc1noc(C)c1-c1ccc(OC2SCC(O)C(O)C2O)c(F)c1 (configuration not stated) | 140 |
| C=C/C=C/CCOC(=O)c1cc(CBr)cc(CBr)c1 | 50 to 52 |
| CC1(COC(=O)Oc2c(F)c(F)c(F)c(F)c2F)COC(=O)OC1 | 130 to 131 |
| CC12CCC3C(CCC4CC(O)CCC43C)C1CCC2S (configuration not stated) | 169 to 170 |
| C=CCNc1nc(NCCN)nc2ccc([N+](=O)[O-])cc12 | 126 to 128 |
| C=C(C)CNc1cc(C)nc2cn[nH]c12 | 161 to 164 |
| CCCCCCCCCCCCSC(CCC)C(=O)Nc1cc(C)c(O)c(C)c1C (configuration not stated) | 116 |
| CC(=O)OCc1[nH]c2c(c1C)C(=O)C(N1CC1)=C(C)C2=O | 210 to 212 |
| CCN(CC)N(C(C)=O)c1nc2cc3nc(N)sc3cc2s1 | 203 to 205 |
| Nc1ncnc2c1ncn2OCCOCP(=O)(O)O | 241 to 244 |
| Cc1occc1COC(C)CN(O)C(N)=O (configuration not stated) | 101 to 102 |
| Cc1ccc2[nH]c3ccc(C)cc3c2c1 | 218 to 221 |
| COc1ccc(-c2cnc3[nH]c(=O)n(CC4CCCCC4)c3n2)cn1 | 235 to 237 |
| N#Cc1ccc(Nc2ccncc2[N+](=O)[O-])cc1 | 210 to 211 |
| Cc1nnnn1CCCC(=O)O | 71 to 72.5 |
| NC(=O)C1CCC(=O)N1CC#CCN1CCCCC1 (configuration not stated) | 143 to 145 |
| CC1(C)[C@@H](C(=O)Nc2ccncc2)[C@@H]1c1ccc(S(N)(=O)=O)cc1 (relative stereo) | 270 to 274 |
| CNC(=S)C1=CC(CF)(CF)Oc2cc(Cl)c(Cl)cc21 | 142 to 143 |
| CCOC(=O)c1cnc2cc(Cl)c(F)cc2c1O | 283 to 290 |
| O=C(O)c1cc2c(Cl)ncnc2s1 | > 265 |
| N[C@@H](CCC(=O)N[C@@H](CS)C(=O)O)C(=O)O | 187 |
| CCCc1nc(Nc2cccc(C(C)C)c2)nc(NC2CCN(S(C)(=O)=O)CC2)n1 | 80.4 to 81.8 |
